From US9670550B2, “Method for examination of carcinogenic risk” (JAPANESE FOUNDATION FOR CANCER RESEARCH, priority 2013, dated 2017)

Legend:
liver cancer [1] = test: Liver cancer development in mice fed high-fat diets and given antibiotic cocktail, with oral deoxycholic acid; assay type: in vivo; conditions: 40 μg/g body weight orally three times a week, high-fat diet + antibiotic cocktail
Method: From the 13th week after the start of the raising, the antibiotic cocktail was administered to mice fed high-fat diets, which were then further raised. To these mice, 40 μg/g body weight of deoxycholic acid (DCA) or only a vehicle as a control was orally administered three times a week (FIG. 5A). […] The cancer was rarely developed in the control mouse group given only the vehicle, and even if the cancer was developed, its tumor size was small. On the other hand, the deoxycholic acid administration group had multiple cancer (25 or more tumors per individual), and also, its size was large.

gut microbiota = test: Gut microbiota analysis of feces by PCR of 16S rRNA gene; assay type: in vivo, mice
Method: In this Example, in order to search for an intestinal bacterium related to cancer development, how the gut microbiota was atlered was analyzed (FIG. 4). In the experimental schedule shown in FIG. 3A, 3 groups were used: a group fed normal diets, a group fed high-fat diets, and a group fed high-fat diets and also given vancomycin. At the 30th week after the start of the raising, their feces were recovered, and the gut microbiota was analyzed.
The gut microbiota was identified by PCR analysis (Non Patent Literatures 11 and 12). Specifically, DNA was extracted from the feces and purified. The gene encoding 16S rRNA in many types of bacteria was amplified by PCR using universal primers. The V1-V4 hypervariable regions were further amplified, followed by identification.

intestinal bacteria = test: Level of gene encoding intestinal bacterial 16S rRNA after antibiotic administration; assay type: in vivo; conditions: 17 weeks after antibiotic administration, 30 weeks after birth; high-fat diet; in drinking water; 3 mice per group
Method: DMBA was applied to wild-type neonatal mice, followed by high-fat diet feeding. From 13 weeks old, an antibiotic cocktail (4Abx, antibiotic cocktail administration group) or vancomycin (VCM, vancomycin administration group) mixed with drinking water was administered to the mice. At the 30th week after the start of the raising, their livers were excised, and liver cancer development was analyzed. On the other hand, the raising of a control group was continued in the same way as the aforementioned raising up to the 13th week. The antibiotic cocktail contained ampicillin (1 g/l), neomycin (1 g/l), metronidazole (1 g/l), and vancomycin (500 mg/l). In the case of administering vancomycin alone, 500 mg/l vancomycin was administered.

liver cancer [2] = test: Liver cancer development in DMBA-treated mice fed high-fat diets, antibiotic given in drinking water; assay type: in vivo; conditions: high-fat diet, antibiotic in drinking water from 13 weeks old, dissected at the 30th week
Description: An acetone solution containing 0.5% of the carcinogenic substance DMBA (7,12-dimethylberiz[a]anthracene) was applied once to the backs of wild-type (C57BL/6) neonatal mice. The neonatal mice were raised together with their mother mouse by feeding with normal diets (ND) or high-fat diet (HFD) until 4 weeks old. The high-fat diets used were D12492 (Rodent Diet with 60% kcal % Fat; Research Diets, Inc., USA). The neonatal mice were weaned at 4 weeks old and subsequently raised with normal diets or high-fat diet. At 30 weeks old, their livers and lungs were excised, and the presence or absence of cancer development was analyzed. The average body weight of the mice at the time of dissection was 33 g for the mice fed normal diets and 51 g for the mice fed high-fat diets. The mice fed high-fat diets had approximately 1.5 times the body weights of the mice fed normal diets.
DMBA was applied to wild-type neonatal mice, followed by high-fat diet feeding. From 13 weeks old, an antibiotic cocktail (4Abx, antibiotic cocktail administration group) or vancomycin (VCM, vancomycin administration group) mixed with drinking water was administered to the mice. At the 30th week after the start of the raising, their livers were excised, and liver cancer development was analyzed. […]
The mice of each group were dissected at the 30th week, and liver cancer development was analyzed (FIGS. 3C and 3D).

Row | liver tumor size (liver cancer [1]; n=3) | tumor number per individual (liver) (liver cancer [1]; n=3) [tumors per individual] | liver tumor development (liver cancer [1]; vs vehicle) | SMILES | Gram-negative microbiota, proportion on average (gut microbiota; HFD+VCM group, average (FIG. 4)) [%] | cluster XI of the genus Clostridium in gut microbiota (gut microbiota; feces at the 30th week, high-fat diets + vancomycin, n=2) [%] | amount of intestinal bacteria (level of gene encoding intestinal bacterial 16s rRNA) (intestinal bacteria) | liver cancer development (tumor number and size) as compared with the control (liver cancer [2])
1 | large | ≥ 25 | developed a large number of liver tumors | C[C@H](CCC(=O)O)[C@H]1CC[C@H]2[C@@H]3CC[C@@H]4C[C@H](O)CC[C@]4(C)[C@H]3C[C@H](O)[C@]12C [deoxycholic acid] |  |  |  | 
2 |  |  |  | CN[C@H](CC(C)C)C(=O)N[C@H]1C(=O)N[C@@H](CC(N)=O)C(=O)N[C@H]2C(=O)N[C@H]3C(=O)N[C@H](C(=O)N[C@H](C(=O)O)c4cc(O)cc(O)c4-c4cc3ccc4O)[C@H](O)c3ccc(c(Cl)c3)Oc3cc2cc(c3O[C@@H]2O[C@H](CO)[C@@H](O)[C@H](O)[C@H]2O[C@H]2C[C@](C)(N)[C@H](O)[C@H](C)O2)Oc2ccc(cc2Cl)[C@H]1O [vancomycin] | 99 | 0 | decreased into a very small level | developed no liver cancer or developed liver cancer with a smaller tumor number and a smaller size
